According to publication PMC10466336, “Chemical Probe for Imaging of Polo-like Kinase 4 and Centrioles” (JACS Au, 2023):

Legend:
[1] = target: T1, 6xHis-tagged Plk4 kinase domain (KD) (Homo sapiens, UniProt O00444); assay: Estimation of fluorescence increase (fluorogenicity) with Plk4 kinase domain versus BSA
T1 construct: Plasmids encoding fragments of Plk4 kinase domain (2-275) with 6xHis-tag were cloned in pET system vectors; made in house; host or cells: E. coli BL21 gold (DE3)
T1 sequence (O00444 2-275): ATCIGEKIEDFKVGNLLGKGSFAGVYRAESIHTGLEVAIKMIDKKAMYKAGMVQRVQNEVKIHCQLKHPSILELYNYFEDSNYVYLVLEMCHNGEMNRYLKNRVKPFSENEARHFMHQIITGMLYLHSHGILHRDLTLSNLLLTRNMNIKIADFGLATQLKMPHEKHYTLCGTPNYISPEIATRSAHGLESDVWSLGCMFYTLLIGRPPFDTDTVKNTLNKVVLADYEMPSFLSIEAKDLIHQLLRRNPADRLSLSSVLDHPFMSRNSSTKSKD
Excerpt: Moreover, we substituted the basic acetyl-piperazine nitrogen in compounds (1 and 2a) with an acetyl-piperidine, to avoid probe protonation and accumulation in endolysosomal compartments (Figure S1A, B).[23] This yielded a second generation of centrinone-based probes (compounds 2b–d). These probes were characterized first in vitro by measuring their fluorogenicity in the presence of the 6xHis-tagged Plk4 kinase domain (KD) (Table 1). […] Next, we measured the binding affinities of the probes to the Plk4 kinase domain via a competition binding assay based on fluorescence polarization. […]
1.3.5 Estimation of fluorescence increase
The probes were analysed as described in Lukinavičius et al. 2014 1. Briefly, SiR650 or SiR595- […]
purified Plk4 kinase domain (10 µM in 20 mM Tris, 200 mM NaCl at pH 7.5) or to a bovine serum albumin (BSA) (Sigma) solution (0.2 mg/mL in 20 mM Tris, 200 mM NaCl at pH 7.5). Final concentration of the probe was 3 µM. The samples were incubated for 1 h at 37 °C, and fluorescence was measured in a 96-well plate (Greiner Bio-One) on a plate reader (TECAN Spark® 20M).
Fluorescence emission was recorded from 570 nm to 750 nm for SiR595 probes, and 630 nm to 750 nm for SiR650 while exciting at 550 nm ± 10 nm for SiR595 probes and at 610 ± 10 nm for SiR650 probes.
A fluorescence excitation scan was recorded by measuring the emission at 660 ± 10 nm for SiR595 and 720 ± 10 nm for SiR650 probes, while exciting from 500 nm to 640 nm for SiR595 probes and from […]

[2] = target: T2, endogenous Plk4 in HeLa cells expressing Centrin1-GFP (Homo sapiens, UniProt O00444); assay: Live- and fixed-cell confocal/STED imaging of endogenous Plk4; type: cell-based; details: one-step labeling, live cells
T2 construct: live cell imaging of endogenous Plk4; endogenous in cells; host or cells: HeLa cells stably expressing Centrin1-GFP
T2 sequence (O00444 1-970): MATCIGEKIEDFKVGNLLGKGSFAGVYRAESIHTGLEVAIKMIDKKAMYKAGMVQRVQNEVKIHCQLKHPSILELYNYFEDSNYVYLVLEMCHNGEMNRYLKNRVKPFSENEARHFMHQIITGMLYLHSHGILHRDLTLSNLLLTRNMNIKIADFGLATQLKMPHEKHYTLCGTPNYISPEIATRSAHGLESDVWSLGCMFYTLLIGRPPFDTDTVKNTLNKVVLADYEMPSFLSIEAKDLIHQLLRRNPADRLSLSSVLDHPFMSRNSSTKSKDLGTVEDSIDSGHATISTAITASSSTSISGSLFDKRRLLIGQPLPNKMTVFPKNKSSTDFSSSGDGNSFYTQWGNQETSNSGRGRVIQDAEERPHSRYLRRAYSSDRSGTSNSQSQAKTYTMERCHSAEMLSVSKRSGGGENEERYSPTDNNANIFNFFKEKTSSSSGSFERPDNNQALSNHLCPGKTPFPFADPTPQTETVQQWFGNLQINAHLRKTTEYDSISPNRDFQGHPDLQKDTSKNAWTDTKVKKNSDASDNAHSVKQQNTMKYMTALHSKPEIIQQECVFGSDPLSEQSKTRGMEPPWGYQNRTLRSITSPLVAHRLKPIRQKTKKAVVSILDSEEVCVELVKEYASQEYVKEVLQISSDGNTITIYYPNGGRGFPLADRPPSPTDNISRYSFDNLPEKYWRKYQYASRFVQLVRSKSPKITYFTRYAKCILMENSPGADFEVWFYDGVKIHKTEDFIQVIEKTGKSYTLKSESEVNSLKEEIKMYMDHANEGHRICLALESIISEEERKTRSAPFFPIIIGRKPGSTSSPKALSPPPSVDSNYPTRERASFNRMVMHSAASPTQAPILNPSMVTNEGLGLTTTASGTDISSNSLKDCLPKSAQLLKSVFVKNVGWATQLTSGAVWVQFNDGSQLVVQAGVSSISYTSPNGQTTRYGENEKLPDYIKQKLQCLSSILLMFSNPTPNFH

COc1c(Nc2cc(C)[nH]n2)nc(Sc2ccc(S(=O)(=O)Cc3cccc([N+](=O)[O-])c3F)cc2F)nc1N1CCC(CC(=O)NCCNC(=O)c2ccc(C(=O)O)c(C3=C4C=CC(=N)C=C4[Si](C)(C)c4cc(N)ccc43)c2)CC1 [2d]
increase in fluorescence upon binding ([1]; in presence of Plk4 KD versus BSA): 36 fold | FPIk4/FBSA ([1]; mean of F(+Plk4KD)/F(+BSA) and standard deviation, N = 3, probe 3 µM, 1 h 37 °C): 36 ± 1 | labeling of endogenous Plk4 in live HeLa cells [2]: failed to observe specific labeling
